{"source": "patent US20070105114A1", "about": "“Biomarkers of cyclin-dependent kinase modulation” (priority 2003, published 2007)", "key": {"W28729 [1]": {"test_system": "W28729", "test": "W28729 expression by real-time quantitative PCR in cultured A2780 tumor cells", "type": "cell-based, human", "conditions": "20 nM", "description": "Real-Time Quantitative PCR Assays: A Taqman® real-time-PCR fluorogenic assay (Applied Biosystems, Foster City, Calif., USA) was used to quantitate the levels of specific mRNA. The cdk2 inhibitor treated A2780s cells were harvested at approximately 70% confluence and total RNA was prepared using the Qiagen RNeasy 96 Kit.\nTaqman® reactions were prepared as follows: 100 ng total RNA; 25 nM-750 nM Forward Primer; 25 nM-750 nM Reverse Primer; 200 nM-400 nM Taqman® Probe (fluorescent dye labeled oligonucleotide primer); 1X Buffer A (Applied Biosystems, Foster City, Calif., USA); 5.5 mM MgCl2; 300 μM DATP, dGTP, dTTP, dCTP; 1 U Amplitaq Gold; 20 U Superscript 2; 1 U RNase Inhibitor. Real-time PCR was performed using an Applied Biosystems 7700 Sequence Detection System. […]\nThe Sequence Detection System generates a Ct (threshold cycle) value that is used to calculate a concentration for each input messenger RNA template. Messenger RNA levels for each gene or fragment thereof of interest were normalized to GAPDH message levels to compensate for variations in total RNA quantity in the input sample. […] Ct values for the gene or fragments thereof of interest and GAPDH were inserted into the δδCt equation: Relative Quantity of Nucleic Acid Template=2^δδCt=2^(δCta-δCtb)(δCta=Ct target−Ct GAPDH, δCtb=Ct reference−Ct GAPDH) which was used to calculate a normalized relative message level. […]"}, "W28729 [2]": {"test_system": "W28729", "test": "W28729 expression by real-time quantitative PCR in PBMC treated in vitro", "type": "cell-based", "conditions": "human PBMC in vitro, 10n-M, 4 hours", "description": "Taqman® reactions were prepared as follows: 100 ng total RNA; 25 nM-750 nM Forward Primer; 25 nM-750 nM Reverse Primer; 200 nM-400 nM Taqman® Probe (fluorescent dye labeled oligonucleotide primer); 1X Buffer A (Applied Biosystems, Foster City, Calif., USA); 5.5 mM MgCl2; 300 μM DATP, dGTP, dTTP, dCTP; 1 U Amplitaq Gold; 20 U Superscript 2; 1 U RNase Inhibitor. Real-time PCR was performed using an Applied Biosystems 7700 Sequence Detection System. Conditions were as follows: 48° C. for 20 minutes (reverse transcription), 95° C. for 10 minutes (denaturation and activation of Amplitaq Gold), 40 cycles of PCR (95° C. for 15 seconds, 60° C. for 1 minutes).\nThe Sequence Detection System generates a Ct (threshold cycle) value that is used to calculate a concentration for each input messenger RNA template. Messenger RNA levels for each gene or fragment thereof of interest were normalized to GAPDH message levels to compensate for variations in total RNA quantity in the input sample. This was done by generating GAPDH Ct values for each cell line. Ct values for the gene or fragments thereof of interest and GAPDH were inserted into the δδCt equation: Relative Quantity of Nucleic Acid Template=2^δδCt=2^(δCta-δCtb)(δCta=Ct target−Ct GAPDH, δCtb=Ct reference−Ct GAPDH) which was used to calculate a normalized relative message level. […]"}, "A2780 xenografts": {"test_system": "A2780 xenografts", "test": "Anti-tumor efficacy in A2780 xenografts (minimum efficacious dose)", "type": "in vivo, mouse", "description": "The human ovarian carcinoma xenograft A2780s were maintained in Balb/c nu/nu nude mice. Tumors were propagated as subcutaneous (sc) transplants using tumor fragments obtained from donor mice. For the cdk2 inhibitor treatment, tumors were allowed to grow to the pre-determined size window of approximately 100-200 mg (tumors outside the range were excluded) and animals were evenly distributed to various treatment and control groups (n=6). Treatment of each animal was based on individual body weight. The cdk2 inhibitor was first dissolved in a mixture of Cremophor®/ethanol (50:50). One hour prior to administration, the cdk2 inhibitor was diluted with water so that the dosing solutions contained the specified excipient composition, i.e., Cremophor®/ethanol/water (1:1:8, v/v). The volume of all compounds injected was 0.01 ml/gm of mice. The cdk2 inhibitor was administered as a bolus injection intraperitoneal at doses of 36 and 18 mg/kg. Tumor and plasma were sampled at the time points of 4, 7, and 24 hour post treatment. Plasma sample was frozen immediately at −80° C. for pharmacokinetic analysis, and tumor sample was preserved in RNAase free buffer for pharmacogenomic analysis. […] At the minimum efficacious dose (MED) of 18 mg/kg/day, the induction was sustained for more than 6 hours. […]"}, "W28729 [3]": {"test_system": "W28729", "test": "Clinical study CA174-002 (24 hr infusion), W28729 expression in patient PBMC by RT-PCR", "type": "in vivo, human", "conditions": "patients", "description": "Patient inclusion criteria: The patient inclusion criteria included: primary solid malignancy refractory to current therapy and adequate bone marrow, hepatic, and renal function. Treatments: Two different treatments were undertaken: (i) 174-001 Study: 1 hr infusion of BMS-387032 q 3 wks; and (ii) 174-002 Study: 24 hr infusion of BMS-387032 q 3 wks. The sampling times were pre-dose, and 2, 6, 24 hour post-dose. W28729 Expression Analysis: RT-PCR. Patient blood samples were collected in PAXgene™ Blood Collection Tubes (Qiagen, catalog #762155). Total RNA was isolated following the manufacturer's instructions using a PAXgene™ blood RNA Kit (Qiagen, catalog #762134). W28729 and GAPDH (housekeeping gene) RNA abundance was measured by Taqman assays, using an ABI PRISM 7900 HT Sequence Detection System. W28729 abundance was normalized relative to GAPDH. Primer and probe sequences are as shown below."}}, "note": "Where a name gives a salt, the structure may show the parent alone."}
{"compound": "CC(C)(C)c1cnc(CSc2cnc(NC(=O)C3CCNCC3)s2)o1", "note": "[cdk2 inhibitor, N-5-[[5-(1,1-Dimethylethyl)-2-oxazolyl]methyl]thio]-2-thiazolyl-4-piperidinecarboxamide, 0.5-L-tartaric acid salt]", "values": [{"measurement": "induction of W28729", "setting": "W28729 [1]", "result": "induction of W28729 occurred"}, {"measurement": "time after treatment at which W28729 induction was detected", "setting": "W28729 [1]", "result": 1, "unit": "h"}, {"measurement": "W28729 expression change", "setting": "W28729 [2]", "result": "Upregulation of W28729 expression"}, {"measurement": "minimum efficacious dose (MED)", "setting": "A2780 xenografts; bolus i.p.", "result": 18, "unit": "mg/kg/day"}, {"measurement": "minimum efficacious dose", "setting": "A2780 xenografts; infusion regimen", "result": 40, "unit": "mg/kg"}, {"measurement": "W28729 induction in PBMC", "setting": "W28729 [3]", "result": "modest induction of W28729 expression"}, {"measurement": "time W28729 induction was sustained following end of infusion", "setting": "W28729 [3]", "result": 6, "unit": "h"}]}
